Assay results from the supplement of paper PMC10307832.

Legend:
Assay in all cases: relative viability (nuclei count vs DMSO), 5 days (fraction); higher = more cells survive
[1] = test system: LXF-289
Outline: (§1)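 Dosing by pin tool came one day after lung cancer cell lines were seeded in 1536-well plates, using either one drug or a fixed anchor-drug dose plus five library-drug doses (not always all listed) in √10 steps. After 5 days, nuclei were counted on 4× images. Relative viability is treated-well nuclei count divided by vehicle-well nuclei count, and values are medians of duplicate plates.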

[2] = test system: NCI-H650
Outline: as §1

[3] = test system: NCI-H596
Outline: as §1

[4] = test system: NCI-H522
Outline: as §1

[5] = test system: PC-14
Outline: as §1

[6] = test system: SW 900
Outline: as §1

[7] = test system: NCI-H520
Outline: as §1

[8] = test system: NCI-H2170
Outline: as §1

[9] = test system: NCI-H441
Outline: as §1

[10] = test system: NCI-H661
Outline: as §1

[11] = test system: NCI-H460
Outline: as §1

[12] = test system: NCI-H3122
Outline: as §1

[13] = test system: NCI-H727
Outline: as §1

[14] = test system: SK-MES-1
Outline: as §1

[15] = test system: NCI-H2347
Outline: as §1

[16] = test system: NCI-H1915
Outline: as §1

[17] = test system: NCI-H1563
Outline: as §1

[18] = test system: NCI-H1792
Outline: as §1

[19] = test system: RERF-LC-KJ
Outline: as §1

[20] = test system: NCI-H1651
Outline: as §1

[21] = test system: NCI-H1355
Outline: as §1

[22] = test system: NCI-H1755
Outline: as §1

[23] = test system: NCI-H322M
Outline: as §1

[24] = test system: LCLC-103H
Outline: as §1

SMILES: C[C@@H]1CN(CC(=O)Nc2ccc3c(c2)Cc2cccc(-c4cc(=O)cc(N5CCOCC5)o4)c2S3)C[C@H](C)O1 + COc1cccc2cc(-c3nc([C@H]4CC[C@H](C(=O)O)CC4)n4ncnc(N)c34)[nH]c12 [OSI-027] (partner 0.5 µM)
- relative viability ([1]; first compound 0.04 µM): 0.779
- relative viability ([1]; first compound 0.1265 µM): 0.829
- relative viability ([1]; first compound 0.4 µM): 0.86
- relative viability ([1]; first compound 4 µM): 0.777
- relative viability ([2]; first compound 0.04 µM): 0.491
- relative viability ([2]; first compound 0.1265 µM): 0.443
- relative viability ([2]; first compound 0.4 µM): 0.51
- relative viability ([2]; first compound 4 µM): 0.36
- relative viability ([3]; first compound 0.04 µM): 0.899
- relative viability ([3]; first compound 0.1265 µM): 0.931
- relative viability ([3]; first compound 0.4 µM): 0.537
- relative viability ([3]; first compound 4 µM): 0.549
- relative viability ([4]; first compound 0.04 µM): 0.706
- relative viability ([4]; first compound 0.1265 µM): 0.679
- relative viability ([4]; first compound 0.4 µM): 0.742
- relative viability ([4]; first compound 4 µM): 0.735
- relative viability ([5]; first compound 0.04 µM): 1.02
- relative viability ([5]; first compound 0.1265 µM): 0.761
- relative viability ([5]; first compound 0.4 µM): 0.744
- relative viability ([5]; first compound 4 µM): 0.653
- relative viability ([6]; first compound 0.04 µM): 0.455
- relative viability ([6]; first compound 0.1265 µM): 0.573
- relative viability ([6]; first compound 0.4 µM): 0.647
- relative viability ([6]; first compound 4 µM): 0.45
- relative viability ([7]; first compound 0.04 µM): 0.272
- relative viability ([7]; first compound 0.1265 µM): 0.227
- relative viability ([7]; first compound 0.4 µM): 0.221
- relative viability ([7]; first compound 4 µM): 0.264
- relative viability ([8]; first compound 0.04 µM): 0.712
- relative viability ([8]; first compound 0.1265 µM): 0.685
- relative viability ([8]; first compound 0.4 µM): 0.581
- relative viability ([8]; first compound 4 µM): 0.707
- relative viability ([9]; first compound 0.04 µM): 0.74
- relative viability ([9]; first compound 0.1265 µM): 0.791
- relative viability ([9]; first compound 0.4 µM): 0.398
- relative viability ([9]; first compound 4 µM): 0.438
- relative viability ([10]; first compound 0.04 µM): 0.694
- relative viability ([10]; first compound 0.1265 µM): 0.701
- relative viability ([10]; first compound 0.4 µM): 0.646
- relative viability ([10]; first compound 4 µM): 0.666
- relative viability ([11]; first compound 0.04 µM): 0.662
- relative viability ([11]; first compound 0.1265 µM): 0.674
- relative viability ([11]; first compound 0.4 µM): 0.587
- relative viability ([11]; first compound 4 µM): 0.253
- relative viability ([12]; first compound 0.04 µM): 0.994
- relative viability ([12]; first compound 0.1265 µM): 0.901
- relative viability ([12]; first compound 0.4 µM): 0.206
- relative viability ([12]; first compound 4 µM): 0.668
- relative viability ([13]; first compound 0.04 µM): 0.546
- relative viability ([13]; first compound 0.1265 µM): 0.485
- relative viability ([13]; first compound 0.4 µM): 0.537
- relative viability ([13]; first compound 4 µM): 0.656
- relative viability ([14]; first compound 0.04 µM): 0.664
- relative viability ([14]; first compound 0.1265 µM): 0.566
- relative viability ([14]; first compound 0.4 µM): 0.503
- relative viability ([14]; first compound 4 µM): 0.49
- relative viability ([15]; first compound 0.04 µM): 0.465
- relative viability ([15]; first compound 0.1265 µM): 0.417
- relative viability ([15]; first compound 0.4 µM): 0.415
- relative viability ([15]; first compound 4 µM): 0.4
- relative viability ([16]; first compound 0.04 µM): 0.623
- relative viability ([16]; first compound 0.1265 µM): 0.682
- relative viability ([16]; first compound 0.4 µM): 0.632
- relative viability ([16]; first compound 4 µM): 0.497
- relative viability ([17]; first compound 0.04 µM): 0.765
- relative viability ([17]; first compound 0.1265 µM): 0.71
- relative viability ([17]; first compound 0.4 µM): 0.689
- relative viability ([17]; first compound 4 µM): 0.72
- relative viability ([18]; first compound 0.04 µM): 0.692
- relative viability ([18]; first compound 0.1265 µM): 0.639
- relative viability ([18]; first compound 0.4 µM): 0.633
- relative viability ([18]; first compound 4 µM): 0.458
- relative viability ([19]; first compound 0.04 µM): 0.757
- relative viability ([19]; first compound 0.1265 µM): 0.583
- relative viability ([19]; first compound 0.4 µM): 0.534
- relative viability ([19]; first compound 4 µM): 0.49
- relative viability ([20]; first compound 0.04 µM): 0.694
- relative viability ([20]; first compound 0.1265 µM): 0.836
- relative viability ([20]; first compound 0.4 µM): 0.741
- relative viability ([20]; first compound 4 µM): 0.585
- relative viability ([21]; first compound 0.04 µM): 0.447
- relative viability ([21]; first compound 0.1265 µM): 0.472
- relative viability ([21]; first compound 0.4 µM): 0.321
- relative viability ([21]; first compound 4 µM): 0.335
- relative viability ([22]; first compound 0.04 µM): 0.697
- relative viability ([22]; first compound 0.1265 µM): 0.651
- relative viability ([22]; first compound 0.4 µM): 0.668
- relative viability ([22]; first compound 4 µM): 0.578
- relative viability ([23]; first compound 0.04 µM): 0.485
- relative viability ([23]; first compound 0.1265 µM): 0.643
- relative viability ([23]; first compound 0.4 µM): 0.5
- relative viability ([23]; first compound 4 µM): 0.493
- relative viability ([24]; first compound 0.04 µM): 0.405
- relative viability ([24]; first compound 0.1265 µM): 0.379
- relative viability ([24]; first compound 0.4 µM): 0.387
- relative viability ([24]; first compound 4 µM): 0.476
